How the values were obtained:
[1] = target: human catalytic domain HDAC4 protein (amino acids 648-1032) (Homo sapiens (Human), UniProt P56524); assay: Inhibition of HDAC4 catalytic domain enzymatic activity, fluorogenic substrate Boc-Lys(Tfa)-AMC; settings: HDAC4 catalytic domain enzyme, read-out: Biochemical HDAC4 IC50
[2] = system: cellular histone deacetylase enzymatic activity in Jurkat E6-1 cells; assay: Inhibition of cellular HDAC activity in Jurkat E6-1 cells, fluorogenic substrate Boc-Lys(Tfa)-AMC; type: cell-based; settings: Homo sapiens, read-out: Cell IC50
Method in brief: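 Jurkat E6.1 cells (75,000/well) were pre-treated with compound for 2 h at 37 °C, then given Boc-Lys(Tfa)-AMC (5× stock 500 μM) for 3 h. Cells were lysed with trypsin-containing buffer overnight, and released AMC fluorescence was read at Ex 355/Em 460 nm over a 16-point dilution series.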

Chain of human catalytic domain HDAC4 protein (amino acids 648-1032) (P56524 648-1032): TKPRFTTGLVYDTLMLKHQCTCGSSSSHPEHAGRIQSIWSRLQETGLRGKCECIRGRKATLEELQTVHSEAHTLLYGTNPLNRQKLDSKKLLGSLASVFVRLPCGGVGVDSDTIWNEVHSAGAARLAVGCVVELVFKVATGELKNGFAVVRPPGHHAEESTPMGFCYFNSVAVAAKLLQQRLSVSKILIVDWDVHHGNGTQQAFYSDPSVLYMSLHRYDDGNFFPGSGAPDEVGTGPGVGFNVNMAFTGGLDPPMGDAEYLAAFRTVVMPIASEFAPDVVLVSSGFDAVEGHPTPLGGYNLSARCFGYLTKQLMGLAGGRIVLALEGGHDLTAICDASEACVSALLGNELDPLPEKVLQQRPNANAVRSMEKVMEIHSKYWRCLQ

Row | SMILES | IC50 [1] [nM] | IC50 [2] [nM]
1 | Cc1c(F)cccc1[C@]1(C(=O)NO)CC[C@H](Oc2ccccc2)CC1 [Example 101, (1r,4r)-1-(3-fluoro-2-methylphenyl)-N-hydroxy-4-phenoxycyclohexanecarboxamide] | 680 | 540
2 | Cc1c(F)cccc1[C@]1(C(=O)NO)CC[C@@H](c2ccc3oc(C4CC4)nc3c2)C1 (relative stereo) [Example 62, (1S,3R*)-3-(2-cyclopropylbenzo[d]oxazol-5-yl)-1-(3-fluoro-2-methylphenyl)-N-hydroxycyclopentanecarboxamide] | 280 | 410
3 | Cc1c(F)cccc1[C@]1(C(=O)NO)CC[C@H](c2ccc3ncn(C)c3c2)C1 (relative stereo) [Example 71, (1S,3S*)-1-(3-Fluoro-2-methylphenyl)-N-hydroxy-3-(1-methyl-1H-benzo[d]imidazol-6-yl)cyclopentanecarboxamide] | 59 | 110
4 | Cc1c(F)cccc1[C@]1(C(=O)NO)CC[C@@H](c2ccc3cnn(C)c3c2)CC1 [Example 103, (1s,4s)-1-(3-fluoro-2-methylphenyl)-N-hydroxy-4-(1-methyl-1H-indazol-6-yl)cyclohexanecarboxamide] | 4200 | 26000
5 | Cc1c(F)cccc1[C@]1(C(=O)NO)CC[C@@H](c2ccc3cn[nH]c3c2F)C1 (relative stereo) [Example 61, (1S,3R*)-3-(7-fluoro-1H-indazol-6-yl)-1-(3-fluoro-2-methylphenyl)-N-hydroxycyclopentanecarboxamide] | 73 | 81
6 | Cc1c(F)cccc1[C@@]1(C(=O)NO)CC[C@H](c2cncc(F)c2)C1 (stereo in doubt) [Example 39, (1R,3S*)-1-(3-fluoro-2-methylphenyl)-3-(5-fluoropyridin-3-yl)-N-hydroxycyclopentanecarboxamide] | 720 | 8400
7 | Cc1c(F)cccc1[C@]1(C(=O)NO)CC[C@@H](c2ccc3ncn(C)c3c2)C1 (relative stereo) [Example 70, (1S,3R*)-1-(3-Fluoro-2-methylphenyl)-N-hydroxy-3-(1-methyl-1H-benzo[d]imidazol-6-yl)cyclopentanecarboxamide] | 110 | 130
8 | Cc1c(F)cccc1C1(C(=O)NO)CCCCCC1 [Example 107, 1-(3-Fluoro-2-methylphenyl)-N-hydroxycycloheptanecarboxamide] | > 50000 | > 50000
9 | Cc1c(F)cccc1[C@]1(C(=O)NO)CC[C@H](c2ccc3c(F)nn(C)c3c2)C1 (relative stereo) [Example 68, (1S,3S*)-3-(3-fluoro-1-methyl-1H-indazol-6-yl)-1-(3-fluoro-2-methylphenyl)-N-hydroxycyclopentanecarboxamide] | 320 | 210
10 | Cc1c(F)cccc1[C@]1(C(=O)NO)CC[C@@H](c2ccn3ccnc3c2)C1 (relative stereo) [Example 57, (1S,3R*)-1-(3-fluoro-2-methylphenyl)-N-hydroxy-3-(imidazo[1,2-a]pyridin-7-yl)cyclopentanecarboxamide] | 98 | 180
11 | Cc1c(F)cccc1[C@]1(C(=O)NO)CC[C@@H](c2ccc3c(cnn3C)c2)C1 (relative stereo) [Example 63, (1S,3R*)-1-(3-fluoro-2-methylphenyl)-N-hydroxy-3-(1-methyl-1H-indazol-5-yl)cyclopentanecarboxamide] | 110 | 140
12 | Cc1ccccc1C1(C(=O)NO)CCCC1 [Example 24, N-Hydroxy-1-o-tolylcyclopentanecarboxamide] | 730 | 8120
13 | Cc1c(F)cccc1[C@]1(C(=O)NO)CC[C@@H](c2ccc3cn(C(F)F)nc3c2)C1 (relative stereo) [Example 65, (1S,3R*)-3-(2-(difluoromethyl)-2H-indazol-6-yl)-1-(3-fluoro-2-methylphenyl)-N-hydroxycyclopentanecarboxamide] | 110 | 99

Reference: patent publication US9783488B2 (CHDI Foundation, Inc., priority 2013, dated 2017)
